In data set [1] the test system is D-malic enzyme from Pseudomonas fluorescens. The conditions noted are these: cited from earlier work.
Data set [2] has as its system D-malic enzyme from E. coli K12 (Crookes strain). The conditions noted are these: EDTA 3.3 μmol/ml; raw extract; cited from earlier work.
Data set [3] has as its target T1, NAD+-dependent D-malate dehydrogenase (decarboxylating, E.C. 1.1.1.83) from E. coli (D-MDH, E. coli DSM 5496) (Escherichia coli, UniProt P76251).
T1 construct: two 42 kD subunits, full length, no tag
T1 sequence (P76251 1-361): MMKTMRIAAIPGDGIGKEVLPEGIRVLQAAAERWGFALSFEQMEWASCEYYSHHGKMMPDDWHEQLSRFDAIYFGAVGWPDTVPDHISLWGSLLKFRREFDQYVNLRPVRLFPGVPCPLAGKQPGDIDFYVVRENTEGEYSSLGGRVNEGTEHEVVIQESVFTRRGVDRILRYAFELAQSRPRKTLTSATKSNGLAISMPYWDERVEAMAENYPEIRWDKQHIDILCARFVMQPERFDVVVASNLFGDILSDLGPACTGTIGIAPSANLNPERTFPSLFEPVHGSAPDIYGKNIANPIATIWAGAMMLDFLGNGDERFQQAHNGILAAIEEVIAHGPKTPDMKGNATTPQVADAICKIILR
As to the kind of experiment: Km determination and EDTA effect on the enzyme according to the invention. In kind it is biochemical. The conditions noted are these: EDTA 0.7 mg/ml test solution.

Substrate in data set [4]: O=C(O)C[C@@H](O)C(=O)O
The data set is described as above. The class given is biochemical, E. coli.

Substrate in data set [5]: NC(=O)c1ccc[n+]([C@@H]2O[C@H](COP(=O)([O-])OP(=O)(O)OC[C@H]3O[C@@H](n4cnc5c(N)ncnc54)[C@H](O)[C@@H]3O)[C@@H](O)[C@H]2O)c1
The description is as above. The class given is biochemical, E. coli. The conditions noted are these: other: Tris, pH 8.5, 25° C., pH 8.5.

Like-named read-outs stand apart in the source and are kept apart here.

As a reminder, the Km is the concentration of substrate that gives half-maximal velocity.

As to `O=C(O)C[C@@H](O)C(=O)O` [D-malate], the Km in data set [1] (read-out: Km for malate) is 300 µM. As to `NC(=O)c1ccc[n+]([C@@H]2O[C@H](COP(=O)([O-])OP(=O)(O)OC[C@H]3O[C@@H](n4cnc5c(N)ncnc54)[C@H](O)[C@@H]3O)[C@@H](O)[C@H]2O)c1` [NAD^+], in data set [1] (read-out: Km for NAD+), the Michaelis constant (Km) was 80 µM.

With `O=C(O)CN(CCN(CC(=O)O)CC(=O)O)CC(=O)O` [EDTA], the “Inhibition of the reaction by EDTA” value in data set [2] is listed as “inhibited”. Also, the “Inhibition of enzyme activity by EDTA” value in data set [3] is “not inhibited”.

B1: NAD+-dependent D-malate dehydrogenase (decarboxylating, E.C. 1.1.1.83) from E. coli (D-MDH, E. coli DSM 5496) (Escherichia coli K-12) (protein)
chain: MMKTMRIAAIPGDGIGKEVLPEGIRVLQAAAERWGFALSFEQMEWASCEYYSHHGKMMPDDWHEQLSRFDAIYFGAVGWPDTVPDHISLWGSLLKFRREFDQYVNLRPVRLFPGVPCPLAGKQPGDIDFYVVRENTEGEYSSLGGRVNEGTEHEVVIQESVFTRRGVDRILRYAFELAQSRPRKTLTSATKSNGLAISMPYWDERVEAMAENYPEIRWDKQHIDILCARFVMQPERFDVVVASNLFGDILSDLGPACTGTIGIAPSANLNPERTFPSLFEPVHGSAPDIYGKNIANPIATIWAGAMMLDFLGNGDERFQQAHNGILAAIEEVIAHGPKTPDMKGNATTPQVADAICKIILR
notes: two 42 kD subunits, full length, no tag
Consider B1, for which the Km in data set [4] (other: HEPES, pH 9.0, 25° C., pH 9.0) was determined as 1500 µM; in data set [4] (other: Tris, pH 8.5, 25° C., pH 8.5), 1100 µM; in data set [5], 400 µM.

The values above are taken from patent publication US5236837A, “Enzymatic reagent for D-malate determination” (Boehringer Mannheim GmbH, priority 1989, dated 1993).
